Values after ≈ are worked out from the molar mass of the structure shown. Read-outs that look alike come from different tables or passages of the source.
Columns and labels:
[1] = tested on: Mycobacterium smegmatis strain RHS 234; type: cell-based; conditions: Mycolicibacterium smegmatis, RHS234, 120 h
[2] = tested on: Mycobacterium smegmatis strain mc^2155; experiment: microbe, parasite or virus in culture; type: cell-based; conditions: for MIC: Mycolicibacterium smegmatis, MC^2155, 120 h; for resistance factor R (MICwt/MICmutant): mc^2155 versus RHS 234
[3] = Autoxidation of rifamycins in phosphate buffer; type: physicochemical; conditions: for spectral changes under autoxidizing conditions: phosphate buffer pH 7.3, trace metals, up to 24 h
[4] = target: T1, tear lipocalin (Homo sapiens, UniProt P31025); experiment: Protection from oxidation of rifamycins by tear lipocalin; type: physicochemical; conditions: tear lipocalin 100 μM; for oxidation by K3Fe(CN)6 after initial protection with tear lipocalin: K3Fe(CN)6 90 μM added after 180 min; for duration of protection from autoxidation by tear lipocalin: drug 15 μM, pH 7.3
T1 sequence (P31025 19-176): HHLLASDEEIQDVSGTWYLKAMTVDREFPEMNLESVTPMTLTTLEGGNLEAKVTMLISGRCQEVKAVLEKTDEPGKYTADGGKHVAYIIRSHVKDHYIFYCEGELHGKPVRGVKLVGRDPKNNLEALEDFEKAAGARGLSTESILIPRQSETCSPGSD

[5] = tested on: serum albumin; conditions: cited from earlier work
[6] = target: T1, tear lipocalin; conditions: read-out: Kd for tear lipocalin; known dissociation constant; cited from earlier work
[7] = monitored at 475 nm; cited from earlier work
[8] = in vivo; cited from earlier work
[9] = in vivo; cited from earlier work; remark: listed apart in the source
[10] = target: T1, tear lipocalin; experiment: Rifamycin binding to tear lipocalin; conditions: increase in binding affinity to tear lipocalin
[11] = tested on: CYP3A4; conditions: cited from earlier work
[12] = tested on: Staphylococcus aureus; conditions: in mice; cited from earlier work
[13] = tested on: Mycobacterium tuberculosis; conditions: M. tuberculosis; cited from earlier work

Compound | MIC [1] [µM] | MIC [2] [µM] | spectral changes under autoxidizing conditions [3] | oxidation by K3Fe(CN)6 after initial protection with tear lipocalin [4] | duration of protection from autoxidation by tear lipocalin [4] | also measured
CO[C@H]1/C=C/O[C@@]2(C)Oc3c(C)c(O)c4c(c3C2=O)C2=NC3(CCN(CC(C)C)CC3)NC2=C(NC(=O)/C(C)=C\C=C\[C@H](C)[C@H](O)[C@@H](C)[C@@H](O)[C@@H](C)[C@H](OC(C)=O)[C@@H]1C)C4=O [Rifabutin] | 0.07 (≈ 0.0593 µg/mL) | 0.3 (≈ 0.254 µg/mL) | did not show spectral changes under autoxidizing conditions | – | – | –
CO[C@H]1/C=C/O[C@@]2(C)Oc3c(C)c(O)c4c(O)c(c5c(nc6cc(C)ccn65)c4c3C2=O)NC(=O)/C(C)=C\C=C\[C@H](C)[C@H](O)[C@@H](C)[C@@H](O)[C@@H](C)[C@H](OC(C)=O)[C@@H]1C [Rifaximin] | 0.16 (≈ 0.126 µg/mL) | < 1.27 | did not show spectral changes under autoxidizing conditions | – | – | –
CO[C@H]1/C=C/O[C@@]2(C)Oc3c(C)c(O)c4c(O)c(c(/C=N/N5CCN(C)CC5)c(O)c4c3C2=O)NC(=O)/C(C)=C\C=C\[C@H](C)[C@H](O)[C@@H](C)[C@@H](O)[C@@H](C)[C@H](OC(C)=O)[C@@H]1C [Rifampin] | 0.3 (≈ 0.247 µg/mL) | 2.43 (≈ 2 µg/mL) | show spectral changes under autoxidizing conditions | rapidly oxidized | at least 3 h | bound to serum albumin [5]: 80-85%; Kd [6]: 128 µM; spectral changes of autoxidation, completeness [7]: nearly complete after 24 h
CO[C@H]1/C=C/O[C@@]2(C)Oc3c(C)c(O)c4c(=O)c(c5oc6cc(N7CCN(CC(C)C)CC7)cc(O)c6nc-5c4c3C2=O)NC(=O)/C(C)=C\C=C\[C@H](C)[C@H](O)[C@@H](C)[C@@H](O)[C@@H](C)[C@H](OC(C)=O)[C@@H]1C [Rifalazil] | < 0.06 | 0.13 (≈ 0.122 µg/mL) | did not show spectral changes under autoxidizing conditions | – | – | mycobactericidal activity relative to rifampin [2]: 16 times; resistance factor R (MICwt/MICmutant) [2]: 2; resistance factor R (MICwt/MICmutant) ([2]; listed as rifalazil): ≈ 2; bound to serum albumin ([5]; in the circulation of animals): 99%; evidence of hepatotoxicity [8]: Notably lacking; side effects [9]: transient flue-symptoms, neutropenia, and thrombocytopenia; free energy change of binding, rifalazil over rifampin [10]: about 2.4 kcal/mole; induction of CYP3A4 [11]: Notably lacking
CO[C@H]1/C=C/O[C@@]2(C)Oc3c(C)c(O)c4c(c3C2=O)C(=O)C=C(NC(=O)/C(C)=C\C=C\[C@H](C)[C@H](O)[C@@H](C)[C@@H](O)[C@@H](C)[C@H](OC(C)=O)[C@@H]1C)C4=O [Rifamycin S] | – | – | – | – | – | ED50 compared with rifamycin SV [12]: higher ED50, than rifamycin SV; MIC [13]: .05 µg/mL (≈ 0.0719 µM)
CO[C@H]1/C=C/O[C@@]2(C)Oc3c(C)c(O)c4c(O)c(c(/C=N/N5CCN(C6CCCC6)CC5)c(O)c4c3C2=O)NC(=O)/C(C)=C\C=C\[C@H](C)[C@H](O)[C@@H](C)[C@@H](O)[C@@H](C)[C@H](OC(C)=O)[C@@H]1C [Rifapentine] | 0.14 (≈ 0.123 µg/mL) | < 2.28 | show spectral changes under autoxidizing conditions | rapidly oxidized | at least 3 h | –
CO[C@H]1/C=C/O[C@@]2(C)Oc3c(C)c(O)c4c(O)c(cc(O)c4c3C2=O)NC(=O)/C(C)=C\C=C\[C@H](C)[C@H](O)[C@@H](C)[C@@H](O)[C@@H](C)[C@H](OC(C)=O)[C@@H]1C [Rifamycin SV] | 0.69 (≈ 0.481 µg/mL) | < 1.38 | show spectral changes under autoxidizing conditions | appeared better protected | at least 3 h | MIC [13]: .05 µg/mL (≈ 0.0717 µM); fraction oxidized ([3]; within 30 minutes): less than 10%

Source: PMC3992280 (Biochimica et biophysica acta, 2014)
